In PubChem BioAssay (NCI) one finds GI50 and TGI data, which are given here for seven compounds.

Where “and” joins values, the source holds several entries; their conditions need not be identical. Identical values can stand only once.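 Results reflect a 48-hour exposure of cells in 96-well plates to compound at five concentrations. Abbreviation: GI50, concentration required for 50% inhibition of growth. TGI: concentration producing complete growth inhibition.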

Among the test systems are SNB-75 CNS; IGROV1 ovarian; T-47D breast; HCC-2998 colon; CAKI-1 renal; UACC-62 melanoma; HOP-62 NSCLC; MOLT-4 leukemia; A498 renal; BT-549 breast.
Holding throughout (assay): NCI anticancer screen, dose series, 48 h

For the compound `Cc1ccc(S(=O)(=O)N2CCc3ccc(O)c4c3C2Cc2ccc3c(c2-4)OCO3)cc1` (centres undefined), the GI50 in the test with SNB-75 CNS was 0.288 µM; in the test on IGROV1 ovarian, 0.708 µM; with T-47D breast, 0.968 µM; with HCC-2998 colon, 1.56 µM; in the test on CAKI-1 renal, 0.737 µM; in the test with UACC-62 melanoma it was 0.577 µM. Further, the GI50 with HOP-62 NSCLC was 1.89 µM; with MOLT-4 leukemia it was 2.42 µM; with A498 renal, 0.898 µM; with BT-549 breast, 0.822 µM. In addition, the TGI was 9.59 µM with SNB-75 CNS; 14.2 µM with IGROV1 ovarian; 51 µM with T-47D breast; 5.24 µM in the test with HCC-2998 colon; 22.6 µM in the test on CAKI-1 renal; 9.41 µM in the test on UACC-62 melanoma. The TGI amounted to 27.9 µM in the test on HOP-62 NSCLC, 20.3 µM in the test with MOLT-4 leukemia, 7.09 µM in the test on A498 renal and 12.5 µM with BT-549 breast.
`Cc1ccc(OCC2OC(n3cnc4c(Br)nc(Br)nc43)CC2Oc2ccc(C)cc2)cc1` (centres undefined): the GI50 is 8.32 µM in the test on SNB-75 CNS; 2.71 µM in the test on IGROV1 ovarian; 2.48 µM with T-47D breast; 3.07 µM with HCC-2998 colon; 1.2 µM in the test with CAKI-1 renal; 3.1 µM with UACC-62 melanoma. Also, the GI50 with HOP-62 NSCLC was 9.08 µM; in the test on A498 renal, 22.9 µM; in the test with BT-549 breast it was 9.96 µM. Also, the TGI in the test on SNB-75 CNS was 18.3 µM and 9.29 µM; in the test on IGROV1 ovarian, 8.86 µM and 9.89 µM; in the test with T-47D breast it was 29.7 µM and 6.82 µM; in the test with HCC-2998 colon, 11.8 µM and 7.24 µM; in the test with CAKI-1 renal it was 2.26 µM and 4.03 µM; in the test with UACC-62 melanoma it was 11.4 µM and 20.6 µM. The TGI in the test on HOP-62 NSCLC is 19.2 µM and 17.1 µM; with MOLT-4 leukemia, 4.34 µM and 5.42 µM; in the test with A498 renal it was 20.6 µM and 41 µM; with BT-549 breast, 20.6 µM and 34.4 µM.
As for `CCn1ccc(NS(=O)(=O)c2ccc(N)cc2)nc1=O`, the GI50 with SNB-75 CNS, in the test on IGROV1 ovarian, with T-47D breast, in the test with HCC-2998 colon, with CAKI-1 renal and in the test with UACC-62 melanoma was above 100 µM in each case. Also, the GI50 with HOP-62 NSCLC, in the test on MOLT-4 leukemia, in the test with A498 renal and in the test on BT-549 breast was above 100 µM each time. Also, the TGI in the test on SNB-75 CNS, in the test with IGROV1 ovarian, with T-47D breast, in the test with HCC-2998 colon, in the test with CAKI-1 renal and with UACC-62 melanoma was above 100 µM in each case. The TGI with HOP-62 NSCLC, with MOLT-4 leukemia, in the test on A498 renal and in the test on BT-549 breast was above 100 µM each time.
Take `CN(C)CCOC(=O)Nc1nc2ccc(Sc3ccccc3)cc2[nH]1`: the GI50 was 1.98 µM in the test with SNB-75 CNS; 6.32 µM in the test with IGROV1 ovarian; 4.66 µM in the test with T-47D breast; 3.31 µM in the test on HCC-2998 colon; 3.16 µM in the test with CAKI-1 renal; 3.74 µM in the test on UACC-62 melanoma. Moreover, the GI50 in the test with HOP-62 NSCLC is 3.94 µM; in the test with MOLT-4 leukemia it was 5.32 µM; with A498 renal it was 2.62 µM; in the test on BT-549 breast, 3.2 µM. Further, the TGI in the test with SNB-75 CNS is 7.66 µM; in the test with IGROV1 ovarian, 27.6 µM; in the test on T-47D breast it was 21.4 µM; in the test on HCC-2998 colon it was 14.1 µM; in the test with CAKI-1 renal it was 17.2 µM; with UACC-62 melanoma, 16.7 µM. The TGI in the test on HOP-62 NSCLC was found to be 15.5 µM; with MOLT-4 leukemia, 20.1 µM; in the test on A498 renal, 10.6 µM; in the test on BT-549 breast it was 13.5 µM.
In the case of `COc1cc(/C=C/C(=O)c2c(C)nc3ccccc3c2C)ccc1OCCCN1CCN(C(=O)c2ccco2)CC1`, the GI50 in the test with SNB-75 CNS is 12.8 µM; with IGROV1 ovarian, 6.7 µM; in the test on T-47D breast, 2.5 µM; in the test on HCC-2998 colon, 10.4 µM; with CAKI-1 renal, 1.86 µM; with UACC-62 melanoma it was 8.39 µM. In addition, the GI50 is 14.7 µM with HOP-62 NSCLC, 0.528 µM in the test with MOLT-4 leukemia, 4.14 µM in the test on A498 renal and 4.86 µM with BT-549 breast. The TGI with SNB-75 CNS is 27.6 µM; in the test on IGROV1 ovarian, 24.6 µM; in the test on T-47D breast it was 15 µM; in the test with HCC-2998 colon, 22.1 µM; in the test on CAKI-1 renal it was 9.03 µM; in the test on UACC-62 melanoma, 21.7 µM. Moreover, the TGI in the test with HOP-62 NSCLC was determined as 30 µM; with MOLT-4 leukemia, 8 µM; in the test on A498 renal it was 17.7 µM; in the test with BT-549 breast, 23.3 µM.
For the compound `N#CC1C(=O)NC(c2ccccc2[N+](=O)[O-])c2sc3c(F)cccc3c21` (centres undefined), the GI50 with SNB-75 CNS is 1.62 µM; in the test on IGROV1 ovarian it was 0.0549 µM; in the test on T-47D breast, 0.241 µM; in the test with HCC-2998 colon, 10.1 µM; in the test with CAKI-1 renal, 0.242 µM; in the test with UACC-62 melanoma it was 0.341 µM. Moreover, the GI50 in the test with HOP-62 NSCLC is 2.12 µM; in the test on MOLT-4 leukemia, 15.4 µM; in the test with A498 renal, 0.561 µM; with BT-549 breast it was 14.9 µM. Moreover, the TGI in the test on SNB-75 CNS came out at 94.9 µM; in the test on IGROV1 ovarian, 5.11 µM; in the test with T-47D breast, 20.7 µM; in the test on HCC-2998 colon it was 32.7 µM; in the test on CAKI-1 renal, 5.43 µM; in the test on UACC-62 melanoma it was 4.27 µM. Moreover, the TGI in the test on HOP-62 NSCLC is 28.9 µM; with MOLT-4 leukemia, above 73 µM; in the test on A498 renal it was 2.06 µM; in the test with BT-549 breast, 61.5 µM.
Consider `COCc1c(-c2ccc(NC(=O)Nc3cc(C(F)(F)F)ccc3F)c(F)c2)c2c(N)ncnn2c1CN1CCOCC1`, for which the GI50 in the test with SNB-75 CNS was 0.492 µM; in the test with IGROV1 ovarian, 0.438 µM; in the test with T-47D breast, 2.14 µM; with HCC-2998 colon, 2.84 µM; in the test on CAKI-1 renal it was 1.9 µM; in the test with UACC-62 melanoma, 1.34 µM. Also, the GI50 is 2.05 µM with HOP-62 NSCLC, 2.07 µM with MOLT-4 leukemia, 0.0166 µM in the test on A498 renal and 0.776 µM with BT-549 breast. Also, the TGI was 3.25 µM in the test with SNB-75 CNS; 7.06 µM with IGROV1 ovarian; 9.95 µM with T-47D breast; 7.33 µM in the test on HCC-2998 colon; above 10 µM in the test with CAKI-1 renal; above 10 µM in the test on UACC-62 melanoma. The TGI with HOP-62 NSCLC is 7.1 µM; with MOLT-4 leukemia it was 9.8 µM; with A498 renal it was 0.248 µM; in the test on BT-549 breast it was 6.13 µM.
